{"source": "paper PMC11979273", "about": "“A phase I study to evaluate the safety, tolerability, and pharmacokinetics of HEC113995PA·H2O, a novel dual-acting serotonergic antidepressant, in healthy subjects” (Frontiers in Pharmacology, 2025)", "key": {"rodent": {"test_system": "rodent", "experiment": "In vivo rodent studies (comparison with Vilazodone, sedation)", "details": "rodent behavioral despair models; unpublished data"}, "[1]": {"experiment": "Food effect study, safety (adverse events)", "type": "in vivo, human", "from_the_text": "A total of 18 healthy subjects of both genders, were assigned randomly to three sequences A, B, and C (n = 6). All subjects received HEC113995PA·H2O tablets, with a total of 3 times administered during the trial, once per cycle, and a washout period of ≥11 days. In sequence A, the order of administration was as follows: fasting, after a standard meal, and after a high-fat meal. In sequence B, the order of administration was after a standard meal, after a high-fat meal, and fasting. Sequence C subjects were administered in the following order: after a high-fat meal, fasting, and after a standard meal. During the fed periods, a single oral dose of HEC113995PA·H2O tablet 20 mg was administered within 30 min after consumption of a standard meal (total calories: approximately 600 kcal), or a high-fat, high-calorie meal (total calories: approximately 800 kcal–1,000 kcal, which derives about 150, 250, and 500–600 kcal from protein, carbohydrate, and fat, respectively). Serial blood samples were collected before and after each cycle for PK determination of plasma concentration and the evaluation of pharmacokinetic characteristics. Safety and tolerability were assessed on days 4 and 28.\nSafety indicators were assessed through adverse events (AE), clinical laboratory tests (including blood routine, blood biochemistry, urine routine), vital signs monitoring (ear temperature), pulse, respiration and blood pressure in a sitting position), 12-lead electrocardiogram (ECG) and physical examinations. Adverse events (AE) and serious adverse events (SAE) were evaluated following the criteria outlined in National Cancer Institute Common Terminology Criteria for Adverse Events (NCI-CTCAE) version 5.0.\nAny adverse events that occurred in all subjects during the clinical trial were recorded with the following details: AE name, occurrence time, end time, severity, whether it was classified as a SAE, severity criteria (if applicable), treatment measures and outcomes, actions taken on investigational drug due to the AE, and the causal relationship between the AE and administrated drug, etc. Each AE was recorded separately."}, "mice": {"test_system": "mice", "experiment": "Behavioral despair models, mice", "type": "in vivo", "details": "single, multiple, and chronic administrations, unpublished data"}, "Hygroscopicity": {"experiment": "Hygroscopicity", "type": "physicochemical", "details": "solid"}, "[2]": {"details": "FE trial 20 mg, 1 case, after a high-fat meal"}, "[3]": {"details": "FE trial 20 mg, after a high-fat meal"}, "[4]": {"details": "FE trial 20 mg, after a high-fat meal, 5 incidents"}, "[5]": {"details": "FE trial 20 mg, after a standard meal"}, "[6]": {"details": "FE trial 20 mg, fasting conditions"}, "[7]": {"details": "FE trial 20 mg, overall, 2 cases"}}, "data": [{"smiles": "Cc1nc(-c2cnc(N3CCN(CCCc4c[nH]c5ccc(C#N)cc45)CC3)nc2)sc1C(N)=O", "note": "[HEC113995PA·H2O]", "values": [{"measurement": "efficacy relative to HEC61139 (Vilazodone)", "setting": "rodent", "result": "more potent efficacy"}, {"measurement": "safety and tolerability", "setting": "[1]; 20 mg fasting, after a standard meal and after a high-fat meal", "result": "good safety and tolerability"}, {"measurement": "TRAE incidence: elevated blood bilirubin", "setting": "[1]; [2]", "result": 5.6, "unit": "%"}, {"measurement": "TRAE incidence: elevated conjugated bilirubin", "setting": "[1]; [2]", "result": 5.6, "unit": "%"}, {"measurement": "TRAE: elevated blood triglycerides", "setting": "[1]; [3]", "result": 1, "unit": "case"}, {"measurement": "TRAE: elevated blood uric acid", "setting": "[1]; [3]", "result": 2, "unit": "cases"}, {"measurement": "TRAE: nausea", "setting": "[1]; [3]", "result": 1, "unit": "case"}, {"measurement": "TEAE incidence", "setting": "[1]; [4]", "result": 27.8, "unit": "%"}, {"measurement": "TRAE incidence", "setting": "[1]; [4]", "result": 27.8, "unit": "%"}, {"measurement": "TRAE: elevated blood uric acid", "setting": "[1]; [5]", "result": 2, "unit": "cases"}, {"measurement": "TRAE: nausea", "setting": "[1]; [5]", "result": 1, "unit": "case"}, {"measurement": "TRAE incidence", "setting": "[1]; FE trial 20 mg, after a standard meal, 3 incidents", "result": 16.7, "unit": "%"}, {"measurement": "TEAE incidence", "setting": "[1]; FE trial 20 mg, after a standard meal, 4 incidents", "result": 22.2, "unit": "%"}, {"measurement": "TEAE incidents", "setting": "[1]; FE trial 20 mg, fasting administration", "result": 6, "unit": "incidents"}, {"measurement": "TRAE incidence", "setting": "[1]; FE trial 20 mg, fasting administration, 4 incidents", "result": 22.2, "unit": "%"}, {"measurement": "TRAE: elevated blood triglycerides", "setting": "[1]; [6]", "result": 1, "unit": "case"}, {"measurement": "TRAE: elevated blood uric acid", "setting": "[1]; [6]", "result": 1, "unit": "case"}, {"measurement": "TRAE: nausea", "setting": "[1]; [6]", "result": 2, "unit": "cases"}, {"measurement": "TRAE incidence: elevated blood triglycerides", "setting": "[1]; [7]", "result": 11.1, "unit": "%"}, {"measurement": "TRAE incidence: nausea", "setting": "[1]; [7]", "result": 11.1, "unit": "%"}, {"measurement": "TRAE incidence: elevated blood uric acid", "setting": "[1]; FE trial 20 mg, overall, 4 cases", "result": 22.2, "unit": "%"}, {"measurement": "incidence of subjects experiencing TRAEs", "setting": "[1]; FE trial 20 mg, overall, 9 subjects, 13 TRAEs", "result": 50.0, "unit": "%"}, {"measurement": "incidence of subjects experiencing TEAE", "setting": "[1]; FE trial 20 mg, overall, 11 subjects, 20 incidents", "result": 61.1, "unit": "%"}, {"measurement": "severity of all TRAEs", "setting": "[1]; FE trial 20 mg, resolved spontaneously without treatment", "result": "Grade 1"}, {"measurement": "duration of immobility", "setting": "mice", "result": "significantly reduce"}, {"measurement": "hygroscopicity", "setting": "Hygroscopicity", "result": "slight hygroscopicity"}]}]}
